Data: patent US20090221559A1 (priority 2005, published 2009)
Where two headings read alike, the source gives them in different places.

Tests used:
[1] = tested on: HCV replicon RNA replication in Huh-7 luc/neo (Huh-Luc) cells; test: HCV replicon assay (stable replicon cell reporter assay, luciferase read-out); assay type: cell-based, HCV type 1b
Method: (§1) The compounds of formula (I) were tested for anti-HCV activity in an assay determining their activity against NS5b polymerase and in an HCV replicon assay
The compounds of the present invention were examined for activity in the inhibition of HCV RNA replication in a cellular assay. […] The cellular assay was based on a bicistronic expression construct, as described by Lohmann et al. (1999) Science vol. 285 pp. 110-113 with modifications described by Krieger et al. (2001) Journal of Virology 75: 4614-4624, in a multi-target screening strategy. In essence, the method was as follows.
The assay utilized the stably transfected cell line Huh-7 luc/neo (hereafter referred to as Huh-Luc). This cell line harbored an RNA encoding a bicistronic expression construct comprising the wild type NS3-NS5B regions of HCV type 1b translated from an Internal Ribosome Entry Site (IRES) from encephalomyocarditis virus (EMCV), preceded by a reporter portion (FfL-luciferase), and a selectable marker portion (neo^R, neomycine phosphotransferase). The construct was bordered by 5′ and 3′ NTRs (non-translated regions) from HCV type 1b. Continued culture of the replicon cells in the presence of G418 (neo^R) was dependent on the replication of the HCV RNA. The stably transfected replicon cells that expressed HCV RNA, which replicated autonomously and to high levels, encoding inter alia luciferase, were used for screening the antiviral compounds.
The replicon cells were plated in 384 well plates in the presence of the test and control compounds which were added in various concentrations. Following an incubation of three days, HCV replication was measured by assaying luciferase activity (using standard luciferase assay substrates and reagents and a Perkin Elmer ViewLux™ ultraHTS microplate imager). […] The inhibitory activity of the compound on luciferase activity was monitored on the Huh-Luc cells, enabling a dose-response curve for each test compound.

[2] = target: T1, HCV NS5B polymerase (His-tagged, C-terminal 21 amino acid deleted NS5B, HC-J4) (Hepatitis C virus genotype 1b, UniProt O92972); test: NS5b polymerase assay (biochemical RdRp assay, 3H-GTP incorporation, SPA beads); design: species or system HCV genotype 1b
T1 construct: The cDNA encoding NS5B amino acid 1-570 (HC-J4, genotype 1b); His tag (His6, from pET-21b) (C); made in house; host or cells: E. coli BL21 (DE3)
T1 sequence (O92972 2417-3000, looked up, stated change not applied): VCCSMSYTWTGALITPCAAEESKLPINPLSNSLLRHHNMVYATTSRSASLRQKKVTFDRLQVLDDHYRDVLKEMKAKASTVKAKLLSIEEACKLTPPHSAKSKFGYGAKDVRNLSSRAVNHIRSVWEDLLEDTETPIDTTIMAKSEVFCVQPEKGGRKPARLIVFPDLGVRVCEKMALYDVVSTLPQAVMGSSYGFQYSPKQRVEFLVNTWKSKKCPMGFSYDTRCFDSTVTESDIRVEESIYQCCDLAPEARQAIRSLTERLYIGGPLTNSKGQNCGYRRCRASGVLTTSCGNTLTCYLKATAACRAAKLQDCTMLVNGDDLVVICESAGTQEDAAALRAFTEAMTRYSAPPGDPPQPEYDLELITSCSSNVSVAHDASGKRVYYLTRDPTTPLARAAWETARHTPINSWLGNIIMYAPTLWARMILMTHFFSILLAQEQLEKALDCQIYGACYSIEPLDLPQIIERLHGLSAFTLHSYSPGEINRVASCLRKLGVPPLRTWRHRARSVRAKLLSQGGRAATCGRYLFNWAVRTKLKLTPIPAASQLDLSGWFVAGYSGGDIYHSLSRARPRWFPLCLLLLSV
Method: as §1
The cDNA encoding NS5B amino acid 1-570 (HC-J4, genotype 1b, pCV-J4L6S, genebank accession number AF054247) was subcloned into the Nhe I and Xho I restriction sites of pET-21b. Expression of the subsequent His-tagged C-terminal 21 amino acid deleted NS5B was performed as follows:
Following transformation in BL21 (DE3) competent cells, bacterial cells were grown in 22 liter LB/Amp media until to reach OD600=0.4-0.6. Protein expression was induced by addition of IPTG 0.4 mM, supplemented with 10 μM MgCl2, and incubated for 14-16 hrs at 20° C. Cells were harvested, resuspended in lysis buffer (20 mM Tris-HCl pH=7.5, 0.3 M NaCl, 10% glycerol, 0.1% NP40, 4 mM MgCl2, 14 mM beta-mercaptoethanol, with tablet of EDTA-free protease cocktail inhibitors) and lysed by sonification. The cell lysate was cleared by high-speed centrifugation (20K×g for 30 min), captured on Ni-NTA beads for 70 min at 4° C., and eluted with 25 mM Hepes pH 7.5, 0.5 M NaCl, 10% glycerol, 14 mM BME, 500 mM imidazole. The eluent was dialysed against 25 mM Hepes pH 7.5, 10% glycerol, 50 mM NaCl, 14 mM BME, after which the protein was further purified by heparin chromatography using the same buffer with 1 M NaCl for elution. Fractions containing pure protein were collected, dialyzed against storage buffer 25 mM Hepes pH=7.5, 300 mM NaCl, 10% glycerol, 14 mM BME), and flash-freezed in liquid nitrogen.
Measurement of HCV NS5B polymerization activity was performed by evaluating the amount of radiolabeled GTP incorporated by the enzyme in a newly synthesized RNA using heteropolymeric RNA template/primer. The highthroughput RdRp assay was carried out in 384-well plates using 200 nM enzyme, 0.1 μCi of ^3H GTP, 5 mM MgCl2, 600 nM GTP, 30 nM PolyC, 300 nM 5′-biotinylated oligo(rG13)/poly(rC) in 20 mM Tris pH 7.5, 21 mM KCl, 2.5 mM DTT, 16.7 mM NaCl and 0.17 mM EDTA. Test compounds were dissolved in dimethylsulfoxide. The test compounds were added to the preformed polymerase-template complex, and incubated at room temperature (RT) for 15 min before the addition of NTPs. The 30-μl reaction was terminated after 2 h at 25° C. upon addition of 30-μl PVT-SPA beads (Amersham Biosciences RPNQ0009, 5 mg/ml in 0.5 M EDTA).

[3] = Hepatitis C virus, Huh-7, 72 h, read-out: Replicon Assay EC50, Huh-Luc cells, three days incubation, luciferase activity
[4] = NS5B Polymerase Assay IC50, 200 nM enzyme, 3H-GTP incorporation, 2 h at 25° C.
[5] = Huh-Luc cells, three days incubation, luciferase activity, read-out: Replicon Assay EC50
[6] = 200 nM enzyme, 3H-GTP incorporation, 2 h at 25° C., read-out: NS5B Polymerase Assay IC50
[7] = Hepatitis C virus, Huh-7, 72 h, read-out: Replicon Assay EC50 (μM), Huh-Luc cells, incubation of three days, luciferase activity
[8] = NS5B Polymerase Assay IC50 (μM)

Compound | EC50 [1, 3] [µM] | IC50 [2, 4] [µM] | EC50 [1, 7] [µM] | IC50 [2, 8] [µM] | other results
O=C1CC(c2ccccc2OCc2ccccc2)CC2=C1C(c1ccc(Cl)cc1Cl)Nc1ccccc1N2 (single isomer, unassigned) [compound 417, 3-(2-Benzyloxyphenyl)-11-(2,4-dichlorophenyl)-2,3,4,5,10,11-hexahydro-dibenzo[b,e][1,4]diazepin-1-one] | – | – | – | – | EC50 ([1]; read-out: Replicon Assay EC50, Huh-Luc cells, incubation of three days, luciferase activity): 8.33 µM; IC50 ([2]; read-out: NS5B Polymerase Assay IC50): > 42.7 µM
CC(=O)N1c2cc(F)c(F)cc2NC2=C(C(=O)CC(C)(C)C2)C1c1ccc(Cl)cc1Cl (stereo not shown) [compound 310, 10-acetyl-7,8-difluoro-11-(2,4-dichlorophenyl)-3,3-dimethyl-2,3,4,5,10,11-hexahydro-1H-dibenzo[b,e][1,4]diazepin-1-one] | 16.4 | 14.5 | – | – | –
COc1ccc(C2C3=C(CC(c4cccc([N+](=O)[O-])c4)CC3=O)Nc3ccccc3N2C(=O)c2ccccc2)cc1 (stereo not shown) [compound 221] | – | – | – | – | EC50 [1, 5]: 23.2 µM; IC50 [2, 6]: > 42.7 µM
O=C1CC(c2ccco2)CC2=C1C(c1cccc([N+](=O)[O-])c1)N(C(=O)c1ccccc1)c1ccccc1N2 (stereo not shown) [compound 286] | – | – | – | – | EC50 [1, 5]: 19.2 µM; IC50 [2, 6]: > 42.7 µM
CC(=O)N1c2ccccc2NC2=C(C(=O)CCC2)C1c1ccc(Cl)cc1Cl (stereo not shown) [compound 291, 10-Acetyl-11-(2,4-dichlorophenyl)-2,3,4,5,10,11-hexahydro-1H-dibenzo[b,e][1,4]-diazepin-1-one] | > 32 | > 42.7 | – | – | –
O=C1CC(c2ccccc2OCc2ccccc2)CC2=C1C(c1ccc(Cl)cc1Cl)Nc1ccccc1N2 (single isomer, unassigned) [compound 419, 3-(2-Benzyloxyphenyl)-11-(2,4-dichlorophenyl)-2,3,4,5,10,11-hexahydro-dibenzo[b,e][1,4]diazepin-1-one] | – | – | 4.82 | > 42.7 | –
O=C1CC(c2ccc(Cl)cc2)CC2=C1C(c1ccccc1C(F)(F)F)Nc1ccccc1N2 (stereo not shown) [compound 349] | – | – | 2.86 | > 42.7 | –
CCC(=O)N1c2ccccc2NC2=C(C(=O)CC(c3ccc(OC)c(OC)c3)C2)C1c1ccc(Cl)cc1 (stereo not shown) [compound 228] | – | – | – | – | EC50 [1, 5]: 17.2 µM; IC50 [2, 6]: > 33.3 µM
COc1ccc(C2CC(=O)C3=C(C2)Nc2ccccc2NC3c2cc(OC)c(OC)cc2Br)cc1 (stereo not shown) [compound 400] | – | – | 3.28 | > 42.7 | –
COc1ccc(C2C3=C(CC(c4ccco4)CC3=O)Nc3ccccc3N2C(C)=O)cc1OC (stereo not shown) [compound 293] | > 32 | > 42.7 | – | – | –
CCCOc1ccc(C2Nc3ccccc3NC3=C2C(=O)CC(c2ccc(OC)cc2)C3)cc1OC (stereo not shown) [compound 394] | – | – | 14.1 | > 42.7 | –
CCCCC(=O)N1c2ccccc2NC2=C(C(=O)CC(C)(C)C2)C1c1ccc(F)cc1 (stereo not shown) [compound 10] | 19.5 | > 33.3 | – | – | –
CCCCCC(=O)N1c2ccccc2NC2=C(C(=O)CC(C)(C)C2)C1c1ccccc1OC(C)CC (stereo not shown) [compound 93] | 4.05 | > 42.7 | – | – | –
COc1ccc(C2C3=C(CC(C)(C)CC3=O)Nc3ccccc3N2C(C)=O)cc1COc1ccc(F)cc1 (stereo not shown) [compound 59] | 5.74 | > 42.7 | – | – | –
CC1(C)CC(=O)C2=C(C1)Nc1ccccc1N(C(=O)Cc1ccc(F)cc1)C2c1cccs1 (stereo not shown) [compound 251] | 9.88 | > 42.6 | – | – | –
CCCCCC(=O)N1c2ccccc2NC2=C(C(=O)CC(c3ccc(OC)c(OC)c3)C2)C1c1cccc(Cl)c1 (mixture of isomers) [compound 205] | – | – | – | – | EC50 [1, 5]: 9.96 µM; IC50 [2, 6]: > 33.3 µM
COc1ccc(C2CC(=O)C3=C(C2)Nc2ccccc2N(C(=O)C(F)(F)F)C3c2ccc(Cl)cc2)cc1 (mixture of isomers) [compound 210] | – | – | – | – | EC50 [1, 5]: 12.1 µM; IC50 [2, 6]: > 33.3 µM
CCOc1cccc(C2Nc3ccccc3NC3=C2C(=O)CC(c2ccccc2)C3)c1 (stereo not shown) [compound 410] | – | – | 22.6 | > 33.3 | –
CCn1c2ccccc2c2cc([C@@H]3Nc4ccccc4NC4=C3C(=O)C[C@@H](c3ccccc3)C4)ccc21 [compound 484] | – | – | 6.65 | > 42.7 | –
COc1ccc(C2CC(=O)C3=C(C2)Nc2ccccc2NC3c2ccc(Cl)cc2)cc1 (stereo not shown) [compound 416] | – | – | 11.2 | > 33.3 | –
